Results reported in ChEMBL document CHEMBL5038655, “Development of Novel Dihydrofuro[3,4-d]pyrimidine Derivatives as HIV-1 NNRTIs to Overcome the Highly Resistant Mutant Strains F227L/V106A and K103N/Y181C” (J Med Chem, 2022).
Values after ≈ are worked out from the molar mass of the structure shown.

What was measured:
[1] = test system: Human immunodeficiency virus 1; experiment: Antiviral activity against HIV-1 harboring reverse transcriptase K103N mutant infected in human MT4 cells assessed as protection against virus-induced cytopathic effect incubated for 5 days by MTT assay; settings: Human immunodeficiency virus 1, MT4, 120 h
[2] = Selectivity index, ratio of CC50 for human MT4 cells to EC50 for antiviral activity against HIV-1 IIIB harboring K103N/Y181C double mutant infected in human MT4 cells; type: toxicity, cell-based; settings: read-out: Ratio CC50/EC50
[3] = test system: Human immunodeficiency virus 1; experiment: Antiviral activity against HIV-1 IIIB harboring K103N/Y181C double mutant infected in human MT4 cells assessed as protection against virus-induced cytotoxicity incubated for 5 days by MTT assay; type: functional, organism-based; settings: Human immunodeficiency virus 1, IIIB, MT4, 120 h
[4] = Aqueous solubility of the compound at pH 7.0 by HPLC analysis; type: physicochemical; settings: buffer
[5] = Aqueous solubility of the compound at pH 7.4 by HPLC analysis; type: physicochemical; settings: buffer
[6] = Aqueous solubility of the compound at pH 2.0 by HPLC analysis; type: physicochemical; settings: buffer
[7] = Cmax in Sprague-Dawley rat at 2 mg/kg, iv measured upto 10 hrs by LC-MS/MS analysis; type: ADME, organism-based; design: route intravenous, dose 2 mg/kg, time <=10; settings: in vivo
[8] = AUC(0 to t) in Sprague-Dawley rat at 10 mg/kg, po measured upto 12 hrs by LC-MS/MS analysis; type: ADME, organism-based; design: route oral, dose 10 mg/kg, time <=12; settings: in vivo
[9] = test system: Human immunodeficiency virus 1; experiment: Antiviral activity against HIV-1 harboring reverse transcriptase E138K mutant infected in human MT4 cells assessed as protection against virus-induced cytopathic effect incubated for 5 days by MTT assay; settings: Human immunodeficiency virus 1, MT4, 120 h
[10] = Oral bioavailability in Sprague-Dawley rat at 10 mg/kg measured upto 12 hrs by LC-MS/MS analysis; type: ADME, organism-based; settings: in vivo
[11] = test system: Human immunodeficiency virus 1; experiment: Potency index, ratio of etravirine EC50 to test compound EC50 for antiviral activity against HIV-1 harboring reverse transcriptase F227L/V106A mutant infected in human MT4 cells assessed as protection against virus-induced cytopathic effect incubated for 5 days by MTT assay; type: functional; settings: time 5 day
[12] = test system: Human immunodeficiency virus 1; experiment: Antiviral activity against HIV-1 harboring reverse transcriptase F227L/V106A mutant infected in human MT4 cells assessed as protection against virus-induced cytopathic effect incubated for 5 days by MTT assay; settings: Human immunodeficiency virus 1, MT4, 120 h
[13] = biological target: Human immunodeficiency virus type 1 reverse transcriptase (Human immunodeficiency virus 1, UniProt Q72547); experiment: Inhibition of wild type HIV-1 reverse transcriptase using biotin-labelled dNTPs as substrate incubated for 2 hrs by ELISA
[14] = test system: Human immunodeficiency virus 1; experiment: Potency index, ratio of rilpivirine EC50 to test compound EC50 for antiviral activity against HIV-1 harboring reverse transcriptase F227L/V106A mutant infected in human MT4 cells assessed as protection against virus-induced cytopathic effect incubated for 5 days by MTT assay; type: functional; settings: time 5 day
[15] = Acute toxicity in Kunming mouse assessed as change in body weight at 2000 mg/kg, po measured for 7 days; type: organism-based; settings: in vivo, time 7 day
[16] = Selectivity index, ratio of CC50 for human MT4 cells to EC50 for antiviral activity against HIV-1 IIIB infected in human MT4 cells; type: toxicity, cell-based; settings: MT4 cells (uninfected and infected with HIV-1 IIIB), read-out: Ratio CC50/EC50
[17] = AUC(0 to infinity) in Sprague-Dawley rat at 2 mg/kg, iv measured upto 10 hrs by LC-MS/MS analysis; type: ADME, organism-based; design: route intravenous, dose 2 mg/kg, time <=10; settings: in vivo
[18] = Tmax in Sprague-Dawley rat at 10 mg/kg, po measured upto 12 hrs by LC-MS/MS analysis; type: ADME, organism-based; settings: in vivo
[19] = Terminal half life in Sprague-Dawley rat at 10 mg/kg, po measured upto 12 hrs by LC-MS/MS analysis; type: ADME, organism-based; settings: in vivo, read-out: beta t1/2 (converted)
[20] = Terminal half life in Sprague-Dawley rat at 2 mg/kg, iv measured upto 10 hrs by LC-MS/MS analysis; type: ADME, organism-based; settings: in vivo, read-out: beta t1/2 (converted)
[21] = AUC(0 to t) in Sprague-Dawley rat at 2 mg/kg, iv measured upto 10 hrs by LC-MS/MS analysis; type: ADME, organism-based; design: route intravenous, dose 2 mg/kg, time <=10; settings: in vivo
[22] = AUC(0 to infinity) in Sprague-Dawley rat at 10 mg/kg, po measured upto 12 hrs by LC-MS/MS analysis; type: ADME, organism-based; design: route oral, dose 10 mg/kg, time <=12; settings: in vivo
[23] = Clearance in Sprague-Dawley rat at 2 mg/kg, iv measured upto 10 hrs by LC-MS/MS analysis; type: ADME, organism-based; settings: in vivo
[24] = test system: Human immunodeficiency virus 1; experiment: Antiviral activity against HIV1 L1001 infected in human MT4 cells assessed as protection against virus-induced cytopathic effect incubated for 5 days by MTT assay; type: functional, organism-based; settings: Human immunodeficiency virus 1, L1001, MT4, 120 h
[25] = test system: Human immunodeficiency virus 1; experiment: Antiviral activity against HIV-1 harboring reverse transcriptase Y188L mutant infected in human MT4 cells assessed as protection against virus-induced cytopathic effect incubated for 5 days by MTT assay; settings: Human immunodeficiency virus 1, MT4, 120 h
[26] = test system: Human immunodeficiency virus 1; experiment: Antiviral activity against HIV-1 harboring reverse transcriptase Y181C mutant infected in human MT4 cells assessed as protection against virus-induced cytopathic effect incubated for 5 days by MTT assay; settings: Human immunodeficiency virus 1, MT4, 120 h
[27] = Cytotoxicity against human MT4 cells assessed as reduction in cell viability incubated for 5 days by MTT assay; type: toxicity, cell-based; settings: time 5 day
[28] = Tmax in Sprague-Dawley rat at 2 mg/kg, iv measured upto 10 hrs by LC-MS/MS analysis; type: ADME, organism-based; settings: in vivo
[29] = Cmax in Sprague-Dawley rat at 10 mg/kg, po measured upto 12 hrs by LC-MS/MS analysis; type: ADME, organism-based; design: route oral, dose 10 mg/kg, time <=12; settings: in vivo
[30] = test system: Human immunodeficiency virus 1; experiment: Antiviral activity against HIV-1 IIIB infected in human MT4 cells assessed as protection against virus-induced cytotoxicity incubated for 5 days by MTT assay; type: functional, organism-based; settings: Human immunodeficiency virus 1, IIIB, MT4, 120 h

Cc1cc(/C=C/C#N)cc(C)c1Oc1nc(NC2CCN(c3ccc(NS(C)(=O)=O)cc3)CC2)nc2c1COC2
EC50 [1]: 6.91 nM | selectivity ratio [2]: 1390 | EC50 [3]: 27.9 nM | solubility [4]: 10.1 µg/mL (≈ 18 µM) | solubility [5]: 2.1 µg/mL (≈ 3.75 µM) | solubility [6]: 124 µg/mL (≈ 221 µM) | Cmax [7]: 756 ng/mL | AUC(0-t) at 12 h [8]: 727 ng·h/mL | EC50 [9]: 7.66 nM | bioavailability [10]: 16.6% | Ratio EC50 [11]: 3.6 | EC50 [12]: 5.79 nM | IC50 [13]: 150 nM | Ratio EC50 [14]: 14 | Activity [15]: Non-Toxic | selectivity ratio [16]: 6290 | AUC(0-inf) [17]: 908 ng·h/mL | Tmax [18]: 1 h | half-life [19]: 1.47 h | half-life [20]: 1.11 h | AUC(0-t) at 10 h [21]: 903 ng·h/mL | AUC(0-inf) [22]: 753 ng·h/mL | clearance [23]: 36.7 mL/min/kg | EC50 [24]: 12.4 nM | EC50 [25]: 28.3 nM | EC50 [26]: 8.91 nM | CC50 at 120 h [27]: 38800 nM | Tmax [28]: 1.98 min | Cmax [29]: 307 ng/mL | EC50 [30]: 6.17 nM
